Data reported in US6211214A, “Biphenyl ether oxazolines and their use as pest-control agents” (Bayer Aktiengesellschaft, priority 1995, dated 2001).
Like-named read-outs stand apart in the source and are kept apart here.

Legend:
[1] = tested on: mustard beetle larvae (Phaedon cochleariae); assay: Phaedon larvae test (cabbage leaves dipped); format: in vivo; conditions: after 7 days, 0.01% active compound; for mortality at 0.01 % strength: Phaedon cochleariae, 168 h, read-out: destruction
Experimental: (§1) Phaedon Larvae Test Solvent: 7 parts by weight of dimethylformamide Emulsifier: 1 part by weight of alkylaryl polyglycol ether To produce a suitable preparation of active compound, 1 part by weight of active compound is mixed with the stated amount of solvent and the stated amount of emulsifier, and the concentrate is diluted with water to the desired concentration. Cabbage leaves (Brassica oleracea) are treated by being dipped into the preparation of the active compound of the desired concentration and are infested with mustard beetle larvae (Phaedon cochleariae), as long as the leaves are still moist.

[2] = log p (partition coefficient octanol/water, determined experimentally from reversed phase HPLC); format: physicochemical; conditions: reversed phase hplc
Source text: [log p=logarithm of the partition coefficient p of the substance between the solvents octanol and water, determined experimentally from reversed phase HPLC]

[3] = tested on: caterpillars of the owlet moth (Spodoptera frugiperda); assay: Spodoptera frugiperda test (cabbage leaves dipped); format: in vivo; conditions: after 7 days, 0.1% active compound; for mortality at 0.1 % strength: Spodoptera frugiperda, 168 h, read-out: destruction
Experimental: as §1, with “Spodoptera Frugiperda-Test Solvent: 7” for “Phaedon Larvae Test Solvent: 7”, “preparation of active compound” for “preparation of the active compound”, “infested with caterpillars of the owlet moth (Spodoptera frugiperda), as long” for “infested with mustard beetle larvae (Phaedon cochleariae), as long”

[4] = tested on: two-spotted spider mite (Tetranychus urticae); assay: Tetranychus test (OP-resistant/dipping treatment); format: in vivo; conditions: 312 h, read-out: destruction
Experimental: Tetranychus Test (OP-resistant/dipping treatment)
(§2) Solvent: 7 parts by weight of dimethylformamide
(§3) Emulsifier: 1 part by weight of alkylaryl polyglycol ether
To produce a suitable preparation of active compound, 1 part by weight of active compound is mixed with the stated amount of solvent and the stated amount of emulsifier, and the concentrate is diluted with emulsifier-containing water to the desired concentrations.
Bean plants (Phaseolus vulgaris) which are heavily infested with all stages of the two-spotted spider mite (Tetranychus urticae) are treated by being dipped into a preparation of the active compound of the desired concentration.
After the desired time, the effect in % is determined. 100% means that all the spider mites have been killed; 0% means that none of the spider mites have been killed.

[5] = tested on: caterpillars of the diamond-back moth (Plutella maculipennis); assay: Plutella test (cabbage leaves dipped); format: in vivo; conditions: 168 h, after 7 days, 0.0001% active compound, read-out: destruction
Experimental: as §2, §3
To produce a suitable preparation of active compound, 1 part by weight of active compound is mixed with the stated amount of solvent and the stated amount of emulsifier, and the concentrate is diluted with water to the desired concentration.
Cabbage leaves (Brassica oleracea) are treated by being dipped into the preparation of active compound of the desired concentration and are infested with caterpillars of the diamond-back moth (Plutella maculipennis) while the leaves are still moist.
After the desired time, the destruction in % is determined. 100% means that all the caterpillars have been killed; 0% means that none of the caterpillars have been killed.

[6] = tested on: green peach aphid (Myzus persicae); assay: Myzus test (infested broad bean seedlings dipped); format: in vivo; conditions: 144 h, after 6 days, 0.01% active compound, read-out: destruction
Experimental: as §2, §3
To produce a suitable preparation of active compound, 1 part by weight of active compound is mixed with the stated amount of solvent and the stated amount of emulsifier and the concentrate is diluted with water to the desired concentration.
Seedlings of broad beans (Vicia faba) infested by the green peach aphid (Myzus persicae) are dipped into the preparation of active compound of the desired concentration and placed in a plastic container.
After the desired time, the destruction in % is determined. 100% means that all the aphids have been killed; 0% means that none of the aphids has been killed.

SMILES	mortality at 0.01 % strength [1] [%]	chromatographic logP [2]	mortality at 0.1 % strength [3] [%]	other results
CCOC(CCOc1ccc(-c2ccc(C3COC(c4c(F)cccc4F)=N3)cc2)cc1)OCC (stereo not drawn) [Example 16]	100	4.74	100	–
CC(C)(C)OC(=O)COc1ccc(-c2ccc(C3COC(c4c(F)cccc4F)=N3)cc2)cc1 (stereo not drawn) [Example 10]	–	4.43	100	–
COC(=O)C(Oc1ccc(-c2ccc(C3COC(c4c(F)cccc4F)=N3)cc2)cc1)C(C)C (stereo not drawn) [Example 18]	–	4.56	100	–
CON=C(C)COc1ccc(-c2ccc(C3COC(c4c(F)cccc4F)=N3)cc2)cc1 (stereo not drawn) [Example 13]	100	–	–	–
O=C(COc1ccc(-c2ccc(C3COC(c4c(F)cccc4F)=N3)cc2)cc1)c1ccccc1 (stereo not drawn) [Example 1, 2-(2,6-difluorophenyl)-4-(4'-benzoylmethoxy-biphenyl-4-yl)-1,3-oxazoline]	100	–	100	mortality at 0.001 % strength [4]: 98%
CCCC(C#N)Oc1ccc(-c2ccc(C3COC(c4c(F)cccc4F)=N3)cc2)cc1 (stereo not drawn) [Example 21]	100	–	100	–
CON=C(COc1ccc(-c2ccc(C3COC(c4c(F)cccc4F)=N3)cc2)cc1)c1ccccc1 (stereo not drawn) [Example 2]	100	5.01	100	mortality at 0.001 % strength [4]: 98%; mortality at 0.0001 % strength [5]: 100%
CC(Oc1ccc(-c2ccc(C3COC(c4c(F)cccc4F)=N3)cc2)cc1)C1=NOCCO1 (stereo not drawn) [Example 20]	100	–	100	–
CC(C#N)Oc1ccc(-c2ccc(C3COC(c4c(F)cccc4F)=N3)cc2)cc1 (stereo not drawn) [Example 4, 2-(2,6-difluorophenyl)-4-[4'-(2-propionitriloxy)-biphenyl-4-yl]-1,3-oxazoline]	100	–	100	mortality at 0.0001 % strength [5]: 100%
N#CCCCOc1ccc(-c2ccc(C3COC(c4c(F)cccc4F)=N3)cc2)cc1 (stereo not drawn) [Example 14]	100	–	100	–
COc1ccc(-c2ccc(C3COC(c4c(F)cccc4F)=N3)cc2)cc1 (stereo not drawn) [(A), reference compound]	–	–	–	mortality at 0.001 % strength ([4]; after 13 days, 0.001% active compound): 45%; destruction [1]: no destruction; mortality at 0.0001 % strength [5]: 5%; mortality at 0.01 % strength [6]: 5%; destruction [3]: no destruction
CON=C(C)C(C)(C)Oc1ccc(-c2ccc(C3COC(c4ccccc4Cl)=N3)cc2)cc1Cl (stereo not drawn) [Example 175]	–	6.06	–	–
CC(=NOC(C)C)C(C)Oc1ccc(-c2ccc(C3COC(c4c(F)cccc4Cl)=N3)cc2)cc1 (stereo not drawn) [Example 123]	–	–	–	chromatographic logP ([2]; A isomer): 6.15; chromatographic logP ([2]; B isomer): 6.3
